Bounds are passed on as bounds.

A short description of series [1]: Clearance from circulation after intravenous injection. The series is classed as in vivo. The note with it: following intravenous injection.
Series [2] concerns the target T1, PKG1alpha(h) (Homo sapiens, UniProt Q13976).
T1 sequence (Q13976 1-671): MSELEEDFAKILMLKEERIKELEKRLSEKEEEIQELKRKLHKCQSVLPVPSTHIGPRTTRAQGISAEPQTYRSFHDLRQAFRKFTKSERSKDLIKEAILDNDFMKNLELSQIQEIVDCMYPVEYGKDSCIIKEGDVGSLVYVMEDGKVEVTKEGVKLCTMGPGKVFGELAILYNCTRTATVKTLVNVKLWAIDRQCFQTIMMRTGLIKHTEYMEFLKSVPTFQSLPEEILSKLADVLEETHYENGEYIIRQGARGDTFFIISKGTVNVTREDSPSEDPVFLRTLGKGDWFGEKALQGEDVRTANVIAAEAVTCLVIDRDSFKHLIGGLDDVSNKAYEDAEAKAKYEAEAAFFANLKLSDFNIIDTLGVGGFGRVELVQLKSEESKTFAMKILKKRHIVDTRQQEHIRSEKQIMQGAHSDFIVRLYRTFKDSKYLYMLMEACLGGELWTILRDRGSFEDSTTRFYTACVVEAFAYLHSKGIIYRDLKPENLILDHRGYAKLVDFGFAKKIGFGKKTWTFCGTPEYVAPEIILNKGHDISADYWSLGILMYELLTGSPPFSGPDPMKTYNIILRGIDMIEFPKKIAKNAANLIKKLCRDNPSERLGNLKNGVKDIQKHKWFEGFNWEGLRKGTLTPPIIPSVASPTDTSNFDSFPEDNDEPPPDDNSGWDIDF
The series can be described thus: Kinase panel (287 kinases, optimal ATP): PKG1alpha(h). Particulars: assayed in 287 kinases at their optimal ATP concentrations. The format is biochemical. As for the experimental part: Its kinase inhibiting activity was assayed in 287 kinases at their optimal ATP concentrations. Members of all the kinome families were represented.

Series [3] in a line: Stability in blood in vitro. The series is classed as in vitro ADME.
In series [4] the test system is neuroma pain. The series can be described thus: Tibial neuroma transposition model of neuroma pain in rats. The format is in vivo. The note with it: transected tibial nerve transposed beneath ankle skin. From the text: (§1) Evaluation of neuroma pain was made possible with the advent of a novel protocol in rats whereby the end of a transected tibial nerve is transposed and then anchored just beneath the skin of the ankle. This allows the allodynia from the neuroma to be evaluated by systematically applying pressure to the overlying skin and observing whether the rat raises the leg.

The test system of series [5] is models of chronic pain. The series can be described thus: Rat models of chronic pain (mechanical allodynia, thermal hyperalgesia). The series is classed as in vivo. Particulars: injected into rats, FIG. 6.
Excerpt: as §1

A short description of series [6]: Distribution to dorsal root ganglion and CNS after injection. The format is in vivo.
The target of series [7] is T2, PKG (Homo sapiens, UniProt Q13976).
T2 sequence (Q13976 1-671): T1 sequence (Q13976 1-671)
The series can be described thus: IC50 of NOP46 for PKG. The format is biochemical.

The nature of series [8]: Tissue distribution studies. The note with it: initial levels. The format is in vivo.
Series [9] concerns the target Protein Kinase A (PKA) (Homo sapiens, UniProt P17612). The series can be described thus: IC50 of NOP46 for Protein Kinase A. The format is biochemical.
Series [10] in a line: Microsome preparations (metabolism). The series is classed as in vitro ADME.

In the case of `CCCOc1ccc(OC)c(F)c1C(=O)c1ccc(C(=O)N[C@@H]2CNC[C@H]2NC(=O)c2ccc3[nH]ncc3c2)cc1` [NOP46, N-((3R,4R)-4-(4-(2-fluoro-3-methoxy-6-propoxybenzoyl)benzamido)pyrrolidin-3-yl)-1H-indazole-5-carboxamide], the “Clearance from the circulation” value in series [1] was “rapidly cleared from the circulation”. Besides, in series [2], the “Selectivity of kinase inhibition” value is recorded as “selectively inhibits activated PKG1alpha”. For the same molecule, the Stability in blood entry in series [3] is recorded as “stable in blood in vitro”. For the same molecule, in [4], the Neuroma pain entry is recorded as “alleviates neuroma pain”. Moreover, in series [5], the Mechanical allodynia entry is given as “alleviated mechanical allodynia” and the Thermal hyperalgesia result is listed as “alleviated”. Besides, in series [6], the “Entry into the central nervous system” value is reported as “does not enter the central nervous system” and the “Time to reach the DRG” value is reported as no more than 30 min. In addition, the “Stability within the ganglion” value in series [6] (dorsal root ganglion) was “at least 24 h”. It took 7.5 nM to reach half-maximal inhibition in series [7] (IC50). Besides, the “Kinetic analysis: mode of inhibition” value in series [7] (with respect to the ATP site) is “non-competitive inhibitor of the ATP site”. Moreover, in [8], the “Tissue level in the liver” value is “high initial levels of NOP46 in the liver”. The same molecule returned a 50% inhibitory concentration (IC50) in series [9] of 2000 nM. Moreover, the Metabolic degradation pathway entry in [10] was “degraded by carbonyl reduction and depropylation”.
